Results taken from ChEMBL document CHEMBL1134420, “Substituent effects within the DNA binding subunit of CBI analogues of the duocarmycins and CC-1065” (Bioorg Med Chem Lett, 2001).

Test system: L1210
Experiment: Cytotoxic activity against L1210 leukemia cells
Format: functional, cell-based, Mus musculus

Compound: O=C1C=C2N(C(=O)c3cc4c(ccc5ccccc54)[nH]3)CC3CC23c2ccccc21 (stereo in doubt; 5)
- IC50 (l1210): 300 nM

Compound: CCCC(=O)Nc1ccc2[nH]c(C(=O)N3C[C@H]4C[C@@]45C3=CC(=O)c3ccccc35)cc2c1
- IC50 (Mus musculus, L1210): 0.03 nM

Compound: CC(=O)N(C)c1ccc2[nH]c(C(=O)N3C[C@H]4C[C@@]45C3=CC(=O)c3ccccc35)cc2c1
- IC50 (Mus musculus, L1210): 0.03 nM

Compound: CC#Cc1ccc2[nH]c(C(=O)N3C[C@H]4C[C@@]45C3=CC(=O)c3ccccc35)cc2c1
- IC50 (Mus musculus, L1210): 1 nM

Compound: O=C1C=C2N(C(=O)c3cc4cc5ccccc5cc4[nH]3)CC3CC23c2ccccc21 (stereo in doubt; 6)
- IC50 (l1210): 0.5 nM

Compound: N#Cc1ccc2[nH]c(C(=O)N3C[C@H]4C[C@@]45C3=CC(=O)c3ccccc35)cc2c1
- IC50 (Mus musculus, L1210): 0.03 nM

Compound: [N-]=[N+]=Nc1ccc2[nH]c(C(=O)N3C[C@H]4C[C@@]45C3=CC(=O)c3ccccc35)cc2c1
- IC50 (Mus musculus, L1210): 0.3 nM

Compound: CCCCOc1ccc2[nH]c(C(=O)N3C[C@H]4C[C@@]45C3=CC(=O)c3ccccc35)cc2c1
- IC50 (Mus musculus, L1210): 0.05 nM

Compound: O=C1C=C2N(C(=O)c3cc4cc(Br)ccc4[nH]3)C[C@H]3C[C@@]23c2ccccc21
- IC50 (Mus musculus, L1210): 0.5 nM

Compound: COc1cccc2cc(C(=O)N3C[C@H]4C[C@@]45C3=CC(=O)c3ccccc35)[nH]c12
- IC50 (Mus musculus, L1210): 0.3 nM

Compound: COc1cc2cc(C(=O)N3CC4CC45C3=CC(=O)c3ccccc35)[nH]c2c(OC)c1OC (single isomer, unassigned; (+))
- IC50 (l1210): 0.03 nM

Compound: O=C1C=C2N(C(=O)c3cc4cc(OCc5ccccc5)ccc4[nH]3)C[C@H]3C[C@@]23c2ccccc21
- IC50 (Mus musculus, L1210): 0.05 nM

Compound: NC(=O)N1CCc2c1ccc1[nH]c(C(=O)N3CC4CC45C3=CC(=O)c3ccccc35)cc21 (stereo in doubt; (-))
- IC50 (l1210): ≥ 0.38 nM

Compound: CCC(=O)c1ccc2[nH]c(C(=O)N3C[C@H]4C[C@@]45C3=CC(=O)c3ccccc35)cc2c1
- IC50 (Mus musculus, L1210): 0.003 nM

Compound: CC(=O)Nc1ccc2[nH]c(C(=O)N3C[C@H]4C[C@@]45C3=CC(=O)c3ccccc35)cc2c1
- IC50 (Mus musculus, L1210): 0.03 nM

Compound: COc1ccc2[nH]c(C(=O)N3C[C@H]4C[C@@]45C3=CC(=O)c3ccccc35)cc2c1
- IC50 (Mus musculus, L1210): 0.05 nM

Compound: CCCOc1ccc2[nH]c(C(=O)N3C[C@H]4C[C@@]45C3=CC(=O)c3ccccc35)cc2c1
- IC50 (Mus musculus, L1210): 0.04 nM

Compound: C#Cc1ccc2[nH]c(C(=O)N3C[C@H]4C[C@@]45C3=CC(=O)c3ccccc35)cc2c1
- IC50 (Mus musculus, L1210): 0.3 nM

Compound: CC(=O)c1cccc2cc(C(=O)N3C[C@H]4C[C@@]45C3=CC(=O)c3ccccc35)[nH]c12
- IC50 (Mus musculus, L1210): 0.3 nM

Compound: NC(=O)N1CCc2c1ccc1[nH]c(C(=O)N3CC4CC45C3=CC(=O)c3ccccc35)cc21 (stereo in doubt; (+))
- IC50 (l1210): 0.005 nM

Compound: O=C1C=C2N(C(=O)c3cc4cc5ccccc5cc4[nH]3)CC3CC23c2ccccc21 (stereo in doubt; 7)
- IC50 (l1210): 400 nM

Compound: COc1cc2cc(C(=O)N3CC4CC45C3=CC(=O)c3ccccc35)[nH]c2c(OC)c1OC (stereo in doubt)
- IC50 (l1210): 2 nM

Compound: O=C1C=C2N(C(=O)c3cc4c(ccc5ccccc54)[nH]3)CC3CC23c2ccccc21 (stereo in doubt; 4)
- IC50 (l1210): 5 nM

Compound: CC(=O)c1ccc2[nH]c(C(=O)N3C[C@H]4C[C@@]45C3=CC(=O)c3ccccc35)cc2c1
- IC50 (Mus musculus, L1210): 0.002 nM

Compound: O=C1C=C2N(C(=O)c3cc4cc(Cl)ccc4[nH]3)C[C@H]3C[C@@]23c2ccccc21
- IC50 (Mus musculus, L1210): 0.4 nM

Compound: CCCC(=O)c1ccc2[nH]c(C(=O)N3C[C@H]4C[C@@]45C3=CC(=O)c3ccccc35)cc2c1
- IC50 (Mus musculus, L1210): 0.02 nM

Compound: N#Cc1cccc2cc(C(=O)N3C[C@H]4C[C@@]45C3=CC(=O)c3ccccc35)[nH]c12
- IC50 (Mus musculus, L1210): 0.3 nM

Compound: CCOc1ccc2[nH]c(C(=O)N3C[C@H]4C[C@@]45C3=CC(=O)c3ccccc35)cc2c1
- IC50 (Mus musculus, L1210): 0.01 nM

Compound: CCC(=O)Nc1ccc2[nH]c(C(=O)N3C[C@H]4C[C@@]45C3=CC(=O)c3ccccc35)cc2c1
- IC50 (Mus musculus, L1210): 0.03 nM

Compound: Cc1ccc2[nH]c(C(=O)N3C[C@H]4C[C@@]45C3=CC(=O)c3ccccc35)cc2c1
- IC50 (Mus musculus, L1210): 2 nM

Compound: O=C1C=C2N(C(=O)c3cc4ccccc4[nH]3)C[C@H]3C[C@@]23c2ccccc21
- IC50 (Mus musculus, L1210): 2.7 nM
